For ten compounds, IC50 results are on record in patent publication US20260022142A1, “MACROCYCLIC IMMUNOMODULATORS” (Bristol-Myers Squibb Company, priority 2022, published 2026).

Numbered stars: 1 amine (or outer) side, 2 acyl side, 3 side chain; on linkers, the order of the positions; unused ones are H or OH. Bridge positions count the residues as written; N and C are the ends. Square brackets hold non-standard residues; d marks the D form. Peptide text beside a SMILES is read from it. * marks the point of attachment. ξ: configuration not given here. Phe(3-CF3) = N[C@@H](Cc1cccc(C(F)(F)F)c1)C(=O)O; Phe(4-COOH) = N[C@@H](Cc1ccc(C(=O)O)cc1)C(=O)O; d(γGlu) = O=C(O)[C@@H](CCC(=O)[*:2])N[*:1]; Bip = N[C@@H](Cc1ccc(-c2ccccc2)cc1)C(=O)O; NH(CH2)14COOH = O=C(O)CCCCCCCCCCCCCCN*; Phe(3-Me) = Cc1cccc(C[C@H](N)C(=O)O)c1; γGlu = O=C(O)[C@H](CCC(=O)[*:2])N[*:1]; NH(CH2)12COOH = O=C(O)CCCCCCCCCCCCN*; Val(3-OH) = CC(C)(O)[C@H](N)C(=O)O; Cha = N[C@@H](CC1CCCCC1)C(=O)O; Thr(3ξ) = CC(O)[C@H](N)C(=O)O; PEG4 = NCCOCCOCCOCCOCCC(=O)O; Dap(Me) = CNC[C@H](N)C(=O)O; Carboxymethyl = O=C(O)C*; Orn = NCCC[C@H](N)C(=O)O; Dab = NCC[C@H](N)C(=O)O; AEEA = NCCOCCOCC(=O)O

T1 sequence (Q15116 25-288): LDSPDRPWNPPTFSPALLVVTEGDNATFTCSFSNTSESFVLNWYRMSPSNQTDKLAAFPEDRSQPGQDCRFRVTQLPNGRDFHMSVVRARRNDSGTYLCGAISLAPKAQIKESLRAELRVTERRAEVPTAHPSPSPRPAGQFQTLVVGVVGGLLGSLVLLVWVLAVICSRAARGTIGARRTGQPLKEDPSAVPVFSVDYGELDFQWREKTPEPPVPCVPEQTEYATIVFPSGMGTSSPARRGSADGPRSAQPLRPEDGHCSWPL

The experiment concerns the target T1, PD-1/PD-L1 interaction (PE-labeled human PD-L1-Ig binding to Jurkat cell line over-expressing human PD-1) (Homo sapiens, UniProt Q15116).
T1 construct: expressed in transfected cells; host or cells: Jurkat
Put plainly: Jurkat-PD-1 Cell Binding High-Content Screening Assay (CBA). It is filed as cell-based. The following applies: Jurkat cell line over-expressing human PD-1; PE-labeled PD-L1-Ig 20 nM final; read-out: Jurkat hPD1-PDL1 IC50. The essentials:
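Read-out is high-content imaging of cell-bound phycoerythrin-tagged PD-L1-Ig on fixed, Hoechst-counterstained Jurkat cells that over-express human PD-1. Compound exposure lasts 2 h at 37° C before the labeled ligand (20 nM final) is added for a further hour.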
`CNC[C@@H]1NC(=O)CSC[C@@H](C(=O)N[C@@H](CCN)C(=O)NCCOCCOCC(=O)N[C@@H](CO)C(=O)N[C@@H](CO)C(=O)N[C@@H](CO)C(=O)N[C@@H](CO)C(=O)N[C@@H](CCC(=O)NCCCCCCCCCCCCCCC(=O)O)C(=O)O)NC(=O)[C@H](Cc2cnc[nH]2)NC(=O)[C@H](C(C)(C)O)NC(=O)[C@H](CC2CCCCC2)NC(=O)[C@H](CCN)NC(=O)[C@@H](CC(C)C)NC(=O)[C@H](CCCN)NC(=O)[C@H](Cc2ccc(C(=O)O)cc2)NC(=O)[C@H](Cc2ccc(-c3ccccc3)cc2)NC(=O)[C@H](Cc2ccc(C(=O)O)cc2)NC(=O)[C@H](Cc2cccc(C(F)(F)F)c2)NC(=O)[C@H](CC(=O)O)NC(=O)[C@H](Cc2ccc(OCC(=O)O)cc2)NC1=O` [Compound 3901] ({CH2CO}-[Dap(Me)]Y(Carboxymethyl)D[Phe(3-CF3)][Phe(4-COOH)][Bip][Phe(4-COOH)][Orn][dL][Dab][Cha][Val(3-OH)]HC[Dab][AEEA]SSSSE(NH(CH2)14COOH)-OH; thioether N-14): the IC50 is 173 nM.
Under `CC(C)C[C@H]1NC(=O)[C@H](CCCN)NC(=O)[C@H](Cc2ccc(OCC(=O)O)cc2)NC(=O)[C@H](Cc2ccc(-c3ccccc3)cc2)NC(=O)[C@H](Cc2ccc(C(=O)O)cc2)NC(=O)[C@H](Cc2cccc(C(F)(F)F)c2)NC(=O)[C@H](CC(=O)O)NC(=O)[C@H](Cc2ccc(OCC(=O)O)cc2)NC(=O)[C@H](C(C)O)NC(=O)CSC[C@@H](C(=O)N[C@@H](CCN)C(=O)NCCOCCOCC(=O)N[C@@H](CCC(=O)NCCOCCOCC(=O)NCCCCCCCCCCCCC(=O)O)C(=O)O)NC(=O)[C@H](CCC(=O)O)NC(=O)[C@H](C(C)C)NC(=O)[C@H](CC2CCCCC2)NC(=O)[C@H](CCN)NC1=O` (stereo partly drawn) [Compound 3902] ({CH2CO}-[Thr(3ξ)]Y(Carboxymethyl)D[Phe(3-CF3)][Phe(4-COOH)][Bip]Y(Carboxymethyl)[Orn][dL][Dab][Cha]VEC[Dab][AEEA][γGlu][AEEA]-{NH(CH2)12COOH}; thioether N-14) stands 67.2 nM; under `CNC[C@@H]1NC(=O)CSC[C@@H](C(=O)N[C@@H](CCN)C(=O)NCCOCCOCC(=O)N[C@@H](CCC(=O)NCCOCCOCC(=O)NCCCCCCCCCCCCC(=O)O)C(=O)O)NC(=O)[C@H](CO)NC(=O)[C@H](C(C)(C)O)NC(=O)[C@H](CC2CCCCC2)NC(=O)[C@H](CCN)NC(=O)[C@@H](CC(C)C)NC(=O)[C@H](CCCN)NC(=O)[C@H](Cc2ccc(C(=O)O)cc2)NC(=O)[C@H](Cc2ccc(-c3ccccc3)cc2)NC(=O)[C@H](Cc2ccc(C(=O)O)cc2)NC(=O)[C@H](Cc2cccc(C(F)(F)F)c2)NC(=O)[C@H](CC(=O)O)NC(=O)[C@H](Cc2ccc(OCC(=O)O)cc2)NC1=O` [Compound 3903] ({CH2CO}-[Dap(Me)]Y(Carboxymethyl)D[Phe(3-CF3)][Phe(4-COOH)][Bip][Phe(4-COOH)][Orn][dL][Dab][Cha][Val(3-OH)]SC[Dab][AEEA][γGlu][AEEA]-{NH(CH2)12COOH}; thioether N-14), 49.7 nM.
The same measure for `CC(C)C[C@H]1NC(=O)[C@H](CCCN)NC(=O)[C@H](Cc2ccc(OCC(=O)O)cc2)NC(=O)[C@H](Cc2ccc(-c3ccccc3)cc2)NC(=O)[C@H](Cc2ccc(C(=O)O)cc2)NC(=O)[C@H](Cc2cccc(C(F)(F)F)c2)NC(=O)[C@H](CC(=O)O)NC(=O)[C@H](Cc2ccc(OCC(=O)O)cc2)NC(=O)[C@H](Cc2ccc(OCC(=O)O)cc2)NC(=O)CSC[C@@H](C(=O)N[C@@H](CCN)C(=O)NCCOCCOCC(=O)N[C@H](CCC(=O)NCCOCCOCC(=O)NCCCCCCCCCCCCC(=O)O)C(=O)O)NC(=O)[C@H](CO)NC(=O)[C@H](C(C)(C)O)NC(=O)[C@H](CC2CCCCC2)NC(=O)[C@H](CCN)NC1=O` [Compound 3904] ({CH2CO}-Y(Carboxymethyl)Y(Carboxymethyl)D[Phe(3-CF3)][Phe(4-COOH)][Bip]Y(Carboxymethyl)[Orn][dL][Dab][Cha][Val(3-OH)]SC[Dab][AEEA][d(γGlu)][AEEA]-{NH(CH2)12COOH}; thioether N-14): 38.1 nM; for `CNC[C@@H]1NC(=O)CSC[C@@H](C(=O)N[C@@H](CCN)C(=O)NCCOCCOCC(=O)N[C@@H](CCC(=O)NCCOCCOCC(=O)NCCCCCCCCCCCCC(=O)O)C(=O)O)NC(=O)[C@H](CO)NC(=O)[C@H](C(C)(C)O)NC(=O)[C@H](CC2CCCCC2)NC(=O)[C@H](CCN)NC(=O)[C@@H](CC(C)C)NC(=O)[C@H](CCCN)NC(=O)[C@H](Cc2ccc(OCC(=O)O)cc2)NC(=O)[C@H](Cc2ccc(-c3ccccc3)cc2)NC(=O)[C@H](Cc2ccc(OCC(=O)O)cc2)NC(=O)[C@H](Cc2cccc(C(F)(F)F)c2)NC(=O)[C@H](CC(=O)O)NC(=O)[C@H](Cc2ccc(OCC(=O)O)cc2)NC1=O` [Compound 3905] ({CH2CO}-[Dap(Me)]Y(Carboxymethyl)D[Phe(3-CF3)]Y(Carboxymethyl)[Bip]Y(Carboxymethyl)[Orn][dL][Dab][Cha][Val(3-OH)]SC[Dab][AEEA][γGlu][AEEA]-{NH(CH2)12COOH}; thioether N-14): 38.4 nM.
The same measure for `Cc1cccc(C[C@@H]2NC(=O)[C@H](CC(=O)O)NC(=O)[C@H](Cc3ccc(OCC(=O)O)cc3)NC(=O)[C@H](C(C)O)NC(=O)CSC[C@@H](C(=O)N[C@@H](CCN)C(=O)NCCOCCOCC(=O)N[C@@H](CCC(=O)NCCOCCOCC(=O)NCCCCCCCCCCCCC(=O)O)C(=O)O)NC(=O)[C@H](CO)NC(=O)[C@H](C(C)(C)O)NC(=O)[C@H](CC3CCCCC3)NC(=O)[C@H](CCN)NC(=O)[C@@H](CC(C)C)NC(=O)[C@H](CCCN)NC(=O)[C@H](Cc3ccc(OCC(=O)O)cc3)NC(=O)[C@H](Cc3ccc(-c4ccccc4)cc3)NC(=O)[C@H](Cc3ccc(OCC(=O)O)cc3)NC2=O)c1` (stereo partly drawn) [Compound 3906] ({CH2CO}-[Thr(3ξ)]Y(Carboxymethyl)D[Phe(3-Me)]Y(Carboxymethyl)[Bip]Y(Carboxymethyl)[Orn][dL][Dab][Cha][Val(3-OH)]SC[Dab][AEEA][γGlu][AEEA]-{NH(CH2)12COOH}; thioether N-14): 17.7 nM.
Regarding `Cc1cccc(C[C@@H]2NC(=O)[C@H](CC(=O)O)NC(=O)[C@H](Cc3ccc(OCC(=O)O)cc3)NC(=O)[C@H](C(C)O)NC(=O)CSC[C@@H](C(=O)N[C@@H](CCN)C(=O)NCCOCCOCC(=O)N[C@@H](CCC(=O)NCCOCCOCC(=O)NCCCCCCCCCCCCC(=O)O)C(=O)O)NC(=O)[C@H](CO)NC(=O)[C@H](C(C)(C)O)NC(=O)[C@H](CC3CCCCC3)NC(=O)[C@H](CCN)NC(=O)[C@@H](CC(C)C)NC(=O)[C@H](CCCN)NC(=O)[C@H](Cc3ccc(C(=O)O)cc3)NC(=O)[C@H](Cc3ccc(-c4ccccc4)cc3)NC(=O)[C@H](Cc3ccc(C(=O)O)cc3)NC2=O)c1` (stereo partly drawn) [Compound 3907] ({CH2CO}-[Thr(3ξ)]Y(Carboxymethyl)D[Phe(3-Me)][Phe(4-COOH)][Bip][Phe(4-COOH)][Orn][dL][Dab][Cha][Val(3-OH)]SC[Dab][AEEA][γGlu][AEEA]-{NH(CH2)12COOH}; thioether N-14), the IC50 worked out at 16.6 nM.
Consider `COC[C@@H]1NC(=O)CSC[C@@H](C(=O)N[C@@H](CCN)C(=O)NCCOCCOCCOCCOCCC(=O)N[C@@H](CCC(=O)N[C@@H](CO)C(=O)NCCCCCCCCCCCCCCC(=O)O)C(=O)O)NC(=O)[C@H](CO)NC(=O)[C@H](C(C)(C)O)NC(=O)[C@H](CC2CCCCC2)NC(=O)[C@H](CCN)NC(=O)[C@@H](CC(C)C)NC(=O)[C@H](CCCN)NC(=O)[C@H](Cc2ccc(C(=O)O)cc2)NC(=O)[C@H](Cc2ccc(-c3ccccc3)cc2)NC(=O)[C@H](Cc2ccc(C(=O)O)cc2)NC(=O)[C@H](Cc2cccc(C(F)(F)F)c2)NC(=O)[C@H](CC(=O)O)NC(=O)[C@H](Cc2ccc(C(=O)O)cc2)NC1=O` [Compound 3908] ({CH2CO}-S(Me)[Phe(4-COOH)]D[Phe(3-CF3)][Phe(4-COOH)][Bip][Phe(4-COOH)][Orn][dL][Dab][Cha][Val(3-OH)]SC[Dab][PEG4][γGlu]S-{NH(CH2)14COOH}; thioether N-14), for which the IC50 turned out to be 125 nM.
Under `Cc1cccc(C[C@@H]2NC(=O)[C@H](CC(=O)O)NC(=O)[C@H](Cc3ccc(C(=O)O)cc3)NC(=O)[C@H](CC(C)C)NC(=O)CSC[C@@H](C(=O)N[C@@H](CCN)C(=O)NCCOCCOCCOCCOCCC(=O)NCCCCCCCCCCCCCCC(=O)O)NC(=O)[C@H](CCC(=O)O)NC(=O)[C@H](C(C)C)NC(=O)[C@H](CC3CCCCC3)NC(=O)[C@H](CCN)NC(=O)[C@@H](CC(C)C)NC(=O)[C@H](CCCN)NC(=O)[C@H](Cc3ccc(C(=O)O)cc3)NC(=O)[C@H](Cc3ccc(-c4ccccc4)cc3)NC(=O)[C@H](Cc3ccc(C(=O)O)cc3)NC2=O)c1` [Compound 3909] ({CH2CO}-L[Phe(4-COOH)]D[Phe(3-Me)][Phe(4-COOH)][Bip][Phe(4-COOH)][Orn][dL][Dab][Cha]VEC[Dab][PEG4]-{NH(CH2)14COOH}; thioether N-14) stands 15.7 nM; under `CC(C)C[C@@H]1NC(=O)CSC[C@@H](C(=O)N[C@@H](CCN)C(=O)NCCOCCOCCOCCOCCC(=O)NCCCCCCCCCCCCCCC(=O)O)NC(=O)[C@H](CCC(=O)O)NC(=O)[C@H](C(C)C)NC(=O)[C@H](CC2CCCCC2)NC(=O)[C@H](CCN)NC(=O)[C@@H](CC(C)C)NC(=O)[C@H](CCCN)NC(=O)[C@H](Cc2ccc(C(=O)O)cc2)NC(=O)[C@H](Cc2ccc(-c3ccccc3)cc2)NC(=O)[C@H](Cc2ccc(C(=O)O)cc2)NC(=O)[C@H](Cc2cccc(C(F)(F)F)c2)NC(=O)[C@H](CC(=O)O)NC(=O)[C@H](Cc2ccc(C(=O)O)cc2)NC1=O` [Compound 3910] ({CH2CO}-L[Phe(4-COOH)]D[Phe(3-CF3)][Phe(4-COOH)][Bip][Phe(4-COOH)][Orn][dL][Dab][Cha]VEC[Dab][PEG4]-{NH(CH2)14COOH}; thioether N-14), 597 nM.
